One assay concerns the target PKR R510Q (Homo sapiens, UniProt P30613, R510Q). As to the kind of experiment: PKR Mutant Assay, AC50 against PKR R510Q. The assay is classed as biochemical. The settings on record: mutant PKR R510Q enzyme. The method, boiled down:
(§1)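 Human PKR (WT or mutant, 80-400 ng/well) in 50 mM Tris pH 7.5, 100 mM KCl, 5 mM MgCl2, 1 mM DTT, 0.03% BSA with PEP 0.1-0.5 mM, NADH 180 uM and LDH, preincubated 60 min at room temperature with compound (11-point 3-fold series from 100 μM final, 1% DMSO). ADP 0.22-1.65 mM started reaction; A340 followed.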

Another assay deals with PKR R532W (Homo sapiens, UniProt P30613, R532W). As to the kind of experiment: PKR Mutant Assay, AC50 against PKR R532W. The assay is classed as biochemical. The settings on record: mutant PKR R532W enzyme. The method, boiled down: as §1
Assay [1] has as its target T1, PKR WT (Homo sapiens, UniProt P30613). As to the kind of experiment: PKR WT enzymatic AC50 assay. It is filed as biochemical. The settings on record: wild type PKR. The method, boiled down: as §1
The target of assay [2] is T1, PKR WT. As to the kind of experiment: PKR WT cell based AC50 assay. The settings on record: wild type PKR.

A value given as a limit tells only on which side of the number the result lay.

Chain of PKR R510Q (P30613 whole entry R510Q): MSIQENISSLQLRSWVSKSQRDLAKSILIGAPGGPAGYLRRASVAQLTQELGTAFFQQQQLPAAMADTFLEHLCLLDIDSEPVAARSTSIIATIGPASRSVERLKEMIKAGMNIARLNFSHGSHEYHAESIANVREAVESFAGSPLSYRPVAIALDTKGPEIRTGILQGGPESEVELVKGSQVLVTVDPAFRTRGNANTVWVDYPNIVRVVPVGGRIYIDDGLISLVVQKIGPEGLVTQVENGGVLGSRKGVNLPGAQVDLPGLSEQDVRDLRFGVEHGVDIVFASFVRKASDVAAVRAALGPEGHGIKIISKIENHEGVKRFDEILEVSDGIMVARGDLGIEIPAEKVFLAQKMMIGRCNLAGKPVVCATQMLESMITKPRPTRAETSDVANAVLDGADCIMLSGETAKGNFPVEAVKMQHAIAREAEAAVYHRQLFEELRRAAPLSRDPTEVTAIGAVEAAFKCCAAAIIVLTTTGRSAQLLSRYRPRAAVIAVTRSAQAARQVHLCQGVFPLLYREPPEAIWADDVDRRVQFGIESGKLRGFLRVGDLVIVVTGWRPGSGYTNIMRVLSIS
T1 sequence (P30613 whole entry): as the sequence (P30613 whole entry R510Q) above, with Q510R counted along it
Chain of PKR R532W (P30613 whole entry R532W): as the sequence (P30613 whole entry R510Q) above, with Q510R, R532W counted along it

For the compound `O=C(c1ccc(NS(=O)(=O)c2cccc3cccnc23)cc1)N1CCC(O)(Cc2cccnc2F)CC1` [Compound 168, N-(4-(4-((2-fluoropyridin-3-yl)methyl)-4-hydroxypiperidine-1-carbonyl)phenyl)quinoline-8-sulfonamide], the AC50 (usually the concentration at which the activity in the assay is half-maximal) is 101 to 1000 nM on PKR R510Q, less than 100 nM on PKR R532W, less than 100 nM at PKR WT [1] and less than 100 nM at PKR WT [2].

As for `CC(C)CC1(O)CCN(C(=O)c2ccc(NS(=O)(=O)c3cccc4nc(N)cnc34)cc2)CC1` [Compound 439], the half-maximal activity concentration (AC50) at PKR R510Q, on PKR R532W, at PKR WT [1] and at PKR WT [2] was less than 100 nM each time.

Take `O=C(c1ccc(NS(=O)(=O)c2cccc3nccnc23)cc1)N1CCC(O)(CCC=C(F)F)CC1` [Compound 399, N-(4-(4-(4,4-difluorobut-3-en-1-yl)-4-hydroxypiperidine-1-carbonyl)phenyl)quinoxaline-5-sulfonamide]: the AC50 on PKR R510Q, at PKR R532W, at PKR WT [1] and at PKR WT [2] was less than 100 nM each time.

Take `O=C(c1ccc(NS(=O)(=O)c2cccc3scnc23)cc1)N1CCC(O)(c2ccccc2Cl)CC1` [Compound 155, N-(4-(4-(2-chlorophenyl)-4-hydroxypiperidine-1-carbonyl)phenyl)benzo[d]thiazole-4-sulfonamide]: the AC50 at PKR R510Q was 101 to 1000 nM; at PKR R532W it was less than 100 nM; at PKR WT [1], less than 100 nM; on PKR WT [2], less than 100 nM.

As for `Cc1cccc(CC2(O)CCN(C(=O)c3ccc(NS(=O)(=O)c4cccc5cccnc45)cc3)CC2)n1` [Compound 207, N-(4-(4-hydroxy-4-((6-methylpyridin-2-yl)methyl)piperidine-1-carbonyl)phenyl)quinoline-8-sulfonamide], the AC50 at PKR R510Q is 101 to 1000 nM; at PKR R532W, less than 100 nM; on PKR WT [1] it was less than 100 nM; at PKR WT [2], 101 to 1000 nM.

Consider `CCc1ccccc1C1(O)CCN(C(=O)c2ccc(NS(=O)(=O)c3cccc4cccnc34)cc2)CC1` [Compound 127, N-(4-(4-(2-ethylphenyl)-4-hydroxypiperidine-1-carbonyl)phenyl)quinoline-8-sulfonamide], for which the half-maximal activity concentration (AC50) on PKR R510Q, on PKR R532W, at PKR WT [1] and at PKR WT [2] was less than 100 nM each time.

Regarding `O=C(c1ccc(NS(=O)(=O)c2cccc3cccnc23)cc1)N1CCC(O)(Cc2ccccn2)CC1` [Compound 189, N-(4-(4-hydroxy-4-(pyridin-2-ylmethyl)piperidine-1-carbonyl)phenyl)quinoline-8-sulfonamide], the AC50 was 101 to 1000 nM at PKR R510Q, less than 100 nM at PKR R532W, less than 100 nM on PKR WT [1] and 101 to 1000 nM on PKR WT [2].

With `Cn1nccc1CC1(O)CCN(C(=O)c2ccc(NS(=O)(=O)c3cccc4scnc34)cc2)CC1` [Compound 433], the AC50 on PKR R510Q was 101 to 1000 nM; on PKR R532W, less than 100 nM; at PKR WT [1], 101 to 1000 nM; on PKR WT [2], 101 to 1000 nM.

In the case of `O=C(c1ccc(NS(=O)(=O)c2cccc3cccnc23)cc1)N1CCC(O)(c2ccc(F)c(Br)n2)CC1` [Compound 133, N-(4-(4-(6-bromo-5-fluoropyridin-2-yl)-4-hydroxypiperidine-1-carbonyl)phenyl)quinoline-8-sulfonamide], the AC50 on PKR R510Q, at PKR R532W, on PKR WT [1] and at PKR WT [2] was less than 100 nM in each case.

On to `O=C(c1ccc(NS(=O)(=O)c2ccc(F)c3cccnc23)cc1)N1CCC(O)(c2ccccc2Cl)CC1` [Compound 179, N-(4-(4-(2-chlorophenyl)-4-hydroxypiperidine-1-carbonyl)phenyl)-5-fluoroquinoline-8-sulfonamide], for which the AC50 on PKR R510Q is 101 to 1000 nM; at PKR R532W, less than 100 nM; at PKR WT [1] it was less than 100 nM; on PKR WT [2], less than 100 nM.

Regarding `CC(C)CC1(O)CCN(C(=O)c2ccc(NS(=O)(=O)c3cccc(O)c3N)cc2)CC1` [Compound 380, 2-amino-3-hydroxy-N-(4-(4-hydroxy-4-isobutylpiperidine-1-carbonyl)phenyl)benzenesulfonamide], the AC50 on PKR R510Q was 101 to 1000 nM; at PKR R532W it was 101 to 1000 nM; at PKR WT [1], less than 100 nM; on PKR WT [2] it was less than 100 nM.

On to `O=C(c1ccc(NS(=O)(=O)c2cc(F)cc3cccnc23)cc1)N1CCC(O)(c2ccccc2Cl)CC1` [Compound 223, N-(4-(4-(2-chlorophenyl)-4-hydroxypiperidine-1-carbonyl)phenyl)-6-fluoroquinoline-8-sulfonamide], for which the AC50 is 101 to 1000 nM at PKR R510Q, less than 100 nM on PKR R532W, less than 100 nM at PKR WT [1] and 101 to 1000 nM at PKR WT [2].

`Nc1nc2c(S(=O)(=O)Nc3ccc(C(=O)N4CCC(O)(c5ccccc5Cl)CC4)cc3)cccc2s1` [Compound 407, 2-amino-N-(4-(4-(2-chlorophenyl)-4-hydroxypiperidine-1-carbonyl)phenyl)benzo[d]thiazole-4-sulfonamide]: the AC50 on PKR R510Q, at PKR R532W, at PKR WT [1] and on PKR WT [2] was less than 100 nM throughout.

Regarding `O=C(c1ccc(NS(=O)(=O)c2cccc3nccnc23)cc1)N1CCC(O)(Cc2ccccc2C(F)(F)F)CC1` [Compound 114, N-(4-(4-hydroxy-4-(2-(trifluoromethyl)benzyl)piperidine-1-carbonyl)phenyl)quinoxaline-5-sulfonamide], the concentration at half-maximal activity (AC50) at PKR R510Q, at PKR R532W, on PKR WT [1] and on PKR WT [2] was less than 100 nM each time.

For the compound `Nc1nc2c(S(=O)(=O)Nc3ccc(C(=O)N4CCC(O)(c5ccccc5Cl)CC4)cc3)cc(F)cc2s1` [Compound 154, 2-amino-N-(4-(4-(2-chlorophenyl)-4-hydroxypiperidine-1-carbonyl)phenyl)-6-fluorobenzo[d]thiazole-4-sulfonamide], the AC50 on PKR R510Q, at PKR R532W, on PKR WT [1] and on PKR WT [2] was less than 100 nM in each case.

Consider `CC(C)CC1(O)CCN(C(=O)c2ccc(NS(=O)(=O)c3cccc4scnc34)cc2)CC1` [Compound 173, N-(4-(4-hydroxy-4-isobutylpiperidine-1-carbonyl)phenyl)benzo[d]thiazole-4-sulfonamide], for which the AC50 at PKR R510Q, at PKR R532W, at PKR WT [1] and at PKR WT [2] was less than 100 nM throughout.

Turning to `O=C(c1ccc(NS(=O)(=O)c2cccc3cccnc23)cc1)N1CCC(O)(c2ccccc2OC(F)(F)F)CC1` [Compound 150, N-(4-(4-hydroxy-4-(2-(trifluoromethoxy)phenyl)piperidine-1-carbonyl)phenyl)quinoline-8-sulfonamide], the AC50 at PKR R510Q was less than 100 nM; at PKR R532W, less than 100 nM; at PKR WT [1], less than 100 nM; at PKR WT [2], 101 to 1000 nM.

For the compound `Cc1nc(C2(O)CCN(C(=O)c3ccc(NS(=O)(=O)c4cccc5cccnc45)cc3)CC2)ccc1F` [Compound 171, N-(4-(4-(5-fluoro-6-methylpyridin-2-yl)-4-hydroxypiperidine-1-carbonyl)phenyl)quinoline-8-sulfonamide], the AC50 was 101 to 1000 nM at PKR R510Q, less than 100 nM at PKR R532W, less than 100 nM on PKR WT [1] and 101 to 1000 nM at PKR WT [2].

Consider `O=C(c1ccc(NS(=O)(=O)c2cccc3cccnc23)c2ccccc12)N1CCC(O)(c2ccccc2Cl)CC1` [Compound 226, N-(4-(4-(2-chlorophenyl)-4-hydroxypiperidine-1-carbonyl)naphthalen-1-yl)quinoline-8-sulfonamide], for which the AC50 was 101 to 1000 nM on PKR R510Q, less than 100 nM at PKR R532W, less than 100 nM on PKR WT [1] and 101 to 1000 nM at PKR WT [2].

The record behind these values is patent US9108921B2, “Therapeutic compounds and compositions” (AGIOS PHARMACEUTICALS, INC, priority 2014, dated 2015).
